From PMC8619920, “New Polyesterified Ursane Derivatives from Leaves of Maesa membranacea and Their Cytotoxic Activity” (Molecules, 2021)

Key:
[1] = Cytotoxicity, LDH assay, PC3 cells; assay type: cell-based, human; details: human, PC3 prostate adenocarcinoma cells, 24 h, mean ± SD of three, read-out: Cell viability PC3
[2] = Cytotoxicity, LDH assay, A375 cells; assay type: cell-based, human; details: human, A375 malignant melanoma cells, 24 h, mean ± SD of three, read-out: Cell viability A375
Protocol: (§1) Cytotoxic activity was tested on human cancer and normal cells, grouped in three panels, namely: prostate, skin and gastrointestinal. The prostate panel consisted of prostate cancer cell lines Du145 (ATCC HTB-81) and PC3 (ATCC CRL-1435), and prostate epithelial cells PNT-2 (ECACC 95012613). Melanoma cell lines A375 (ATCC CRL-1619) and HTB140 (ATCC Hs 294T) together with skin keratinocytes HaCaT (obtained as a kind gift of prof. Marta Michalik, Department of Cell Biology, Jagiellonian University, Kraków, Poland) were included into the skin panel. The gastrointestinal panel of cells comprised colon cancer cell lines Caco-2 (ATCC HTB-37) and HT29 (ATCC HTB-38). Du145 cells were grown in Modified Eagle’s Medium with low (1.0 g/L) glucose concentration, HT29, PC3 and PNT-2 cells in Dulbecco’s Modified Eagle’s Media: F12 HAM Nutrient Mixture, Caco-2 in Modified Eagle’s Medium with NEAA (no-essential amino acids) while melanoma cells and keratinocytes were maintained in Modified Eagle’s Medium with high (4.5 g/L) glucose concentration. The culture media (all supplied by Sigma-Aldrich Co.; St. Louis, MO, USA) contained antibiotics and 10% fetal bovine serum (FBS). All cultures were maintained at 37 °C, in a humidified, 5% CO2 containing, atmosphere.
(§2) The examined triterpenes were diluted in the culture media from freshly made stock solutions in MeOH (10 mg/mL) to the working concentrations (from 0 to 100 μg/mL).
(§3) Cell viability was determined as it was described previously. Cells suspended in the nutrient medium were transferred into 96-well microtiter plates (density 1.5 × 10^4 per well), and preincubated for 24 h (37 °C, 5% CO2). Then, the culture medium was replaced with the medium containing different concentrations of 1 or 2 (1–100 μg/mL). After 24 h of incubation, viability of the cells was determined using colorimetric lactate dehydrogenase (LDH) assay, in comparison to the controls to which corresponding aliquots of MeOH diluted with culture media were added. Cells grown in the medium without the tested compounds were used as control I (negative) and the positive control (control II) was obtained by incubation of the cells in the medium containing 1% Triton X-100. LDH released from the damaged cells into the cell culture medium was quantified by measuring the absorbance at 490 nm using Synergy II Biotek (BioTek Instruments, Winooski, VT, USA) microplate reader. Cytotoxicities of the examined compounds were calculated as follows: [(absorbance of the tested sample − absorbance of control I)/(absorbance of control II − absorbance of control I)] × 100. Results were means of three independent measurements (± SD). Doxorubicin (Ebewe Pharma GmbH., Unterach, Austria) was used as a reference cytostatic drug. The IC50 values were determined by plotting the percentage viability of the cells versus concentration and the adequate calculations made using AAT Bioquest website program (https://www.aatbio.com/tools/ic50-calculator, accessed on 29 October 2021).

[3] = test system: A375 human malignant melanoma cells; assay: Cytotoxicity, LDH assay, A375 cells; assay type: cell-based; details: Homo sapiens, A-375; 24 h treatment, 5–100 μg/mL
Protocol: as §1, §2, §3

Row | SMILES | viability at 24 h, 5 μg/mL [1] [%] | viability at 24 h, 10 μg/mL [1] [%] | viability at 24 h, 20 μg/mL [1] [%] | viability at 24 h, 30 μg/mL [1] [%] | viability at 24 h, 40 μg/mL [1] [%] | viability at 24 h, 50 μg/mL [1] [%] | viability at 24 h, 100 μg/mL [1] [%] | viability at 24 h, 5 μg/mL [2] [%] | viability at 24 h, 10 μg/mL [2] [%] | viability at 24 h, 20 μg/mL [2] [%] | viability at 24 h, 30 μg/mL [2] [%] | viability at 24 h, 40 μg/mL [2] [%] | viability at 24 h, 50 μg/mL [2] [%] | viability at 24 h, 100 μg/mL [2] [%] | IC50 [3] [µg/mL]
1 | CCC(C)C(=O)OC1C=C2C3C(C)C(C)(O)CC(OC(C)=O)C3(C)CCC2(C)C2(C)CC(OC(C)=O)C3C(C)(C)C(O)C(OC(C)=O)CC3(C)C12 (stereo not drawn) [Compound 1, 2α,6β,22α-triacetoxy-11α-(2-methylbutyryloxy)-urs-12-ene-3α,20β-diol] | 96.2 ± 1.04 | 90.7 ± 0.93 | 83.9 ± 1.67 | 74.8 ± 1.17 | 62.6 ± 1.36 | 45.7 ± 1.85 | 28.1 ± 2.31 | 97.23 ± 0.57 | 96.44 ± 0.92 | 92.8 ± 1.11 | 87.2 ± 2.17 | 79.8 ± 2.02 | 70.2 ± 1.39 | 62.6 ± 2.03 | > 100
2 | CC(=O)OC1CC2(C)C(C(OC(C)=O)CC3(C)C2C(O)C=C2C4C(C)C(C)(O)CC(OC(C)=O)C4(C)CCC23C)C(C)(C)C1O (stereo not drawn) [Compound 2, 2α,6β,22α-triacetoxy-urs-12-ene-3α,11α,20β-triol] | 96.6 ± 1.35 | 94.1 ± 1.24 | 87.9 ± 1.54 | 79 ± 1.1 | 70.3 ± 1.6 | 59 ± 1.81 | 47.1 ± 2.64 | 97.28 ± 0.33 | 95.28 ± 0.9 | 91.1 ± 1.39 | 87.3 ± 1.5 | 82.6 ± 1.36 | 76.2 ± 1.78 | 67.6 ± 1.48 | > 100
